The values that follow come from patent US5491169A, “Amino acid derivatives and their therapeutical applications” (priority 1989, dated 1996).

Test [1] concerns the target T1, purified rabbit kidney neutral endopeptidase (Oryctolagus cuniculus, UniProt P08049).
T1 construct: from tissue; host or cells: rabbit kidney (purified enzyme)
T1 sequence (P08049 1-750): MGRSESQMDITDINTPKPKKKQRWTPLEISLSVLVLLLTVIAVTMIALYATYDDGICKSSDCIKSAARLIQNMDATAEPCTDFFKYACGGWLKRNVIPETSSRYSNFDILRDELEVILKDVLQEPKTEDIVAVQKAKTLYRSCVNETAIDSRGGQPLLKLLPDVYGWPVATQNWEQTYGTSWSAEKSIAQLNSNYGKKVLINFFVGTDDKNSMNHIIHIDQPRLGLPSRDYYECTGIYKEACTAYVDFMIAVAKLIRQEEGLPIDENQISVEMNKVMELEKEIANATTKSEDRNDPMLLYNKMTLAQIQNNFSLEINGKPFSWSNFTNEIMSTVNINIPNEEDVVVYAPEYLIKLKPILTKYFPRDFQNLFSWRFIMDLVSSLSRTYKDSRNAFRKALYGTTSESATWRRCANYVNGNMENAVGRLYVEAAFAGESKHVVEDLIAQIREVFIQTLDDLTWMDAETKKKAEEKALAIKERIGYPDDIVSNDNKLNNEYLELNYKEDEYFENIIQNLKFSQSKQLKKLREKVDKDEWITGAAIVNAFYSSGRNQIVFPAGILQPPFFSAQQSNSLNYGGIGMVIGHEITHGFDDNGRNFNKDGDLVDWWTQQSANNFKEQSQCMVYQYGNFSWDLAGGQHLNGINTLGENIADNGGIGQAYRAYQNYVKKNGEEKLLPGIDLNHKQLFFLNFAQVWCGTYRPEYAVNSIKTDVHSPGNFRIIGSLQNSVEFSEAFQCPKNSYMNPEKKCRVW
In words: In vitro inhibitory potency against neutral endopeptidase. Type of test: biochemical. Conditions: purified rabbit kidney enzyme, (3H)-D-Ala2-Leu5-enkephalin, 25° C., pH 7.4, DTT 100 equivalents. Here is the method: (§1) The biological activity relates to the inhibition of purified aminopeptidase N and of purified neutral endopeptidase.
(§2) 1) In vitro inhibition of enkephalinase activities.
a) Inhibitory potency against neutral endopeptidase
The inhibitory power is determined on purified rabbit kidney neutral endopeptidase following the protocol described in the literature (Blumberg et al. Life Sci. (1981) 28, 301). After a preincubation for 15 minutes at 25° C., an aliquot of proteins is incubated for 20 minutes at 25° C. in the presence of 20 nmol of (^3 H)-D-Ala^2 -Leu^5 -enkephalin and the test compound in solution in Tris-HCl buffer (pH 7.4) in the presence of dithiothreitol DTT (100 equivalents relative to the inhibitor). The reaction is stopped by adding 0.2 N HCl. The tritiated metabolite (^3 H)-Tyr-D-Ala-Gly is separated from the D-Ala^2 -Leu^5 -enkephalin by chromatography on a Porapak column, and the quantity formed measured using a liquid scintillation counter.
The activity of the different compounds is expressed as 50% inhibitory concentrations (IC50), and the results are summarized in Table II.

A further test is described as follows: Hot plate test, i.p. The class given is in vivo. The conditions noted are these: mice. Here is the method: (§3) 1) Hot .plate test: This involves the licking and jumping reflex of the mouse on a plate heated to 55° C., according to the method of Jacob et al (Arch Int. Pharmacodyn. 122 287, 1959; 1961).
1.2 Administered i.p. in mice, the test compounds display a characteristic effect on the times of restraint of jumping and of licking. These effects are antagonized by naloxone (0.5 mg/kg).
A general note: Thermal pain tests record how soon the animal reacts.

Another test can be described thus: Hot plate test, i.v. Type of test: in vivo. The conditions noted are these: Mus musculus, iv, mice, hot plate 55° C., Table III 50% analgesia. Here is the method: as §3
1.1. Administered i.v. (100 μl in tail vein) in mice, the compounds tested display a characteristic effect both on the latency time of jumping and on latency time of licking. These effects are antagonized by naloxone (0.5 mg/kg s.c.).
The results are expressed in Table III as a % analgesia. The percentage analgesia is expressed for each dose of compound tested by the following formula: [formula]

The target in test [2] is T2, purified porcine kidney aminopeptidase N (Sus scrofa, UniProt P15145).
T2 construct: purchased Boehringer, France; host or cells: porcine kidney
T2 sequence (P15145 1-963): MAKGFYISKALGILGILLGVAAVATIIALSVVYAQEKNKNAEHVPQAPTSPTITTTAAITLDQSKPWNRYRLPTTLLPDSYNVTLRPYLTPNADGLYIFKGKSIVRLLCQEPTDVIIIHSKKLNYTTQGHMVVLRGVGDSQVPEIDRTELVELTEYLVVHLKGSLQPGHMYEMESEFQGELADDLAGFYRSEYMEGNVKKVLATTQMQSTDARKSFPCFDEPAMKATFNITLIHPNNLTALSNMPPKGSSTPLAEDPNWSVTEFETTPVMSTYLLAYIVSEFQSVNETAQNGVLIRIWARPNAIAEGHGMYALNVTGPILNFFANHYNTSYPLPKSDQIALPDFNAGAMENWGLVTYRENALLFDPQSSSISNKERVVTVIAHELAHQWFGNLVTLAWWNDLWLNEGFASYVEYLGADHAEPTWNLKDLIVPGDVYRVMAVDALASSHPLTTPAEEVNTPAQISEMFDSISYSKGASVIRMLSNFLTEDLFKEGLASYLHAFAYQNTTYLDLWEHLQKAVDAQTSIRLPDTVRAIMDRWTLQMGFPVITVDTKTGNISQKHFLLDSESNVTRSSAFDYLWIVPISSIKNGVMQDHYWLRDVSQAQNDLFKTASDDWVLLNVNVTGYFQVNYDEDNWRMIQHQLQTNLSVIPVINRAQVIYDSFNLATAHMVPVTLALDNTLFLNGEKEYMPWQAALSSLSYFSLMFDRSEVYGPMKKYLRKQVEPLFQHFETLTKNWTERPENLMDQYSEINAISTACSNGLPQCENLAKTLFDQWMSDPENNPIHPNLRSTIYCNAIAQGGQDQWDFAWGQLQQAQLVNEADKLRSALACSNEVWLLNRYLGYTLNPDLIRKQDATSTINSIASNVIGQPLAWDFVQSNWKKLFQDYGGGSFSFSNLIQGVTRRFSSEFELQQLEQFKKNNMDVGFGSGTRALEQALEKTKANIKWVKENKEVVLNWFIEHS
In words: In vitro inhibitory potency against aminopeptidase N. Type of test: biochemical. Conditions: purified porcine kidney enzyme, (3H)-Leu5-enkephalin, DTT. As to the method: as §1, §2
b) Inhibitory potency against aminopeptidase N
The inhibitory power is measured on purified porcine kidney aminopeptidase (Boehringer, France). The assay is performed in a manner identical to the above, using (^3 H)-Leu^5 -enkephalin as a substrate. The metabolite formed, (^3 H)-Tyr, is separated by chromatography on a Porapak column, and the quantity formed measured using a liquid scintillation counter.

The nature of test [3]: Tolerance after long-term administration, rats (% analgesia). The class given is in vivo. The conditions noted are these: rat, s.c. four times per 24 h, compound 8 10 mg/kg, morphine 2 mg/kg, compound 7 dose not given. As to the method: (§4) e) Study of the tolerance and addiction effects induced by long-term administration of the compound of Example 8:
(§5) 1) The compound 8 is administered s.c. four times per 24 hours at a dose of 5 mg/kg for 6 days to mice and at 10 mg/kg to rats.
(§6) Morphine (hydrochloride) is administered under the same conditions (0.5 mg/kg in mice, 2 mg/kg in rats). The control animals receive only the vehicle.

Test [4] can be described thus: Tolerance after long-term administration, mice (% analgesia). The class given is in vivo. The conditions noted are these: mouse, s.c. four times per 24 h, compound 8 5 mg/kg, morphine 0.5 mg/kg. As to the method: as §4, §5, §6
The nature of test [5]: Test on abdominal cramps induced by phenylbenzoquinone, i.v. Type of test: in vivo. As to the method: 2) Test on abdominal cramps
(Hendershot and Forsaith. J. Pharmacol. (1975), 125, 237): This test measures the number of cramps induced by i.p. injection of 100 μl of a 0.02% solution of phenylbenzoquinone. The number of cramps is counted during 10 minutes, 10 minutes after the injection. Administered i.v., the compounds decrease the number of cramps.

For a further test, the system named is cerebral NEP. The test can be described thus: In vivo inhibition of cerebral NEP. Conditions: mice, i.v. Here is the method: 2) "In vivo" inhibition of cerebral NEP
The enzymatic activity of cerebral NEP is compared in mice untreated or treated with a given dose of compound (approximately 2.5 mg/kg injected intravenously. The animals are sacrificed at variable times after injection of the inhibitor, and the NEP activity is determined in the brain by measuring the degradation of (^3 H)-D-Ala^2 -Leu^5 -enkephalin.
For the final compound of Example 1, injected at a dose of 2.7 μmol/kg (47.6 μg in 100 μl), the following results are obtained: […]

Test [6] is described as follows: Tail flick test (withdrawal of the tail), i.v. Type of test: in vivo. Conditions: rats, 10 mg/kg. Here is the method:
3) Test of withdrawal of the tail in rats: (tail flick test): administered i.v. in rats, the compounds according to the invention produce a significant extension of the time of withdrawal of the tail. These effects are antagonized by naloxone (0.5 mg/kg s.c.).
The results are expressed as a % analgesia for the same dose (10 mg/kg) of all the compounds tested.

Consider `CC(NC(=O)C(CC[S+](C)[O-])CSSCC(N)CC[S+](C)[O-])C(=O)OCc1ccccc1` (stereo not shown) [Example 22], for which the IC50 (usually the concentration that gives 50% inhibition) was determined as 7 nM in [1] and 2 nM in [2]. In the test “Hot plate test, i.p.”, the “dose in i.p. hot plate table” value is 6 mg/kg. In addition, it took a dose of 4.5 mg/kg to reach the 50% effect level in the test “Hot plate test, i.v.” (ED50).
For `CC(C)CC(N)CSSCC(Cc1ccccc1)C(=O)NC(C)C(=O)OCc1ccccc1` (stereo not shown) [Example 2], the IC50 came to 2.5 nM in [1] and 5 nM in test [2].
Turning to `C[S+]([O-])CCC(N)CSSCC(CC[S+](C)[O-])C(=O)NC(CC(=O)OCc1ccccc1)c1ccccc1` (stereo not shown) [Example 28], the IC50 in [1] was 3 nM; in [2], 2 nM. Besides, it took a dose of 4 mg/kg to reach the 50% effect level in the test “Hot plate test, i.v.” (ED50).
For the compound `CC(C)CC(CSSCC(N)CC[S+](C)[O-])C(=O)NN1CCOCC1` (stereo not shown) [Example 33], the figures for the IC50 in test [1] and in [2] were 5 nM and 2 nM, respectively.
`CN1CC[C@]23c4c5ccc(O)c4O[C@H]2[C@@H](O)C=C[C@H]3[C@H]1C5` [morphine, reference compound]: the “% analgesia relative to the controls” value is given as 70 ± 12% in test [3] (day 0); 20 ± 3% in test [3] (day 1); 0% in [3] (day 6); 100 ± 10% in test [4] (day 0); 60 ± 10% in test [4] (day 1); 0% in [4] (day 6).
In the case of `CC(C)CC(N)CSSCC(Cc1ccccc1)C(=O)NCC(=O)OCc1ccccc1` (stereo not shown) [Example 1], the IC50 was found to be 2 nM in test [1] and 5 nM in test [2]. The entries for the “% analgesia (abdominal cramps)” value in test [5] (1 mg/kg), in test [5] (3 mg/kg) and in [5] (9 mg/kg) were 24.6% ± 8, 46.9% ± 7.9 and 73.9% ± 8.2, respectively. Besides, the “% inhibition cerebral NEP” value came out at 68 ± 4% in the test with cerebral NEP (2.7 μmol/kg (Example 7: same conditions), 60'); 63 ± 2% in the test with cerebral NEP (2.7 μmol/kg (Example 7: same conditions), 120'); 42 ± 16% with cerebral NEP (2.7 μmol/kg (Example 7: same conditions), 180'); 96 ± 9% with cerebral NEP (2.7 μmol/kg, 15' (n = 4)). Also, the “dose in i.p. hot plate table” value in the test “Hot plate test, i.p.” is 10 mg/kg. Moreover, in “Hot plate test, i.v.”, it took a dose of 4 mg/kg to reach the 50% effect level (ED50). Besides, the “% analgesia (tail flick)” value in test [6] amounted to 20%.
Take `C[S+]([O-])CCC(N)CSSCC(Cc1ccccc1)C(=O)NC1CCCCC1C(=O)OCc1ccccc1` (stereo not shown) [Example 26]: the half-inhibitory concentration (IC50) in [1] is 5 nM; in test [2], 2 nM. The ED50 (commonly the dose that gives a 50% effect, or the effect in half of the subjects) in the test “Hot plate test, i.v.” was 8 mg/kg.
In the case of `CSCCC(N)CSSCC(Cc1ccccc1)C(=O)NC(C)C(=O)OCc1ccccc1` (stereo not shown) [Example 6], the IC50 worked out at 1.2 nM in [1] and 2 nM in [2].
On to `C[S+]([O-])CCC(N)CSSCC(CC[S+](C)[O-])C(=O)NC1CCCCC1C(=O)OCc1ccccc1` (stereo not shown) [Example 32], for which the IC50 in test [1] was determined as 4 nM; in test [2], 2 nM. For the same compound, the “dose in i.p. hot plate table” value in “Hot plate test, i.p.” came to 5.5 mg/kg. Further, the ED50 in “Hot plate test, i.v.” was 2 mg/kg. Moreover, the “% analgesia (tail flick)” value in [6] came to 36%.
For `CC(C)CC(N)CSSCC(Cc1ccccc1)C(=O)NC(Cc1ccccc1)C(=O)OCc1ccccc1` (stereo not shown) [Example 3], the IC50 in [1] was determined as 1.2 nM; in test [2], 5 nM.
Take `NC(CSSCC(Cc1ccccc1)C(=O)NCC(=O)OCc1ccccc1)Cc1ccccc1` (stereo not shown) [Example 4]: the values for the IC50 in test [1] and in test [2] were 2 nM and 8 nM, respectively.
